# Data from patent US7772192B2, “Compositions and methods for treatment of disease with acetylated disaccharides” (The Regents of the University of California, priority 2003, dated 2010).
# Several values for one entry are separate records, joined by “and”; a condition that tells them apart may be missing. Equal values may be shown once. Read-outs that look alike come from different tables or passages of the source.
# Key:
# β4GalTI [1] = details: cited from earlier work
# [2] = tested on: sialyl Lewis X in HL-60, LS180, murine Lewis lung carcinoma, B16 murine melanoma cells; experiment: Inhibition of sialyl Lewis X formation in cultured cells; assay type: cell-based
# Description: The disaccharides can be acylated with, e.g., acetyl, butyryl or benzoyl groups to reduce their hydrophilicity and make them permeable to cell membranes. […] The various disaccharides described above and their acylated or aryl derivatives are logical extensions of the present invention. In addition, analogs of the above compounds in which critical hydroxyl groups are missing or alkylated would bind to glycosyltransfersase and inhibit their activity.
# β4GalTI [3] = experiment: Acceptor specificity and inhibitory action of GlcNAc derivatives (β4galactosyltransferase); assay type: biochemical; details: no reference given
# Description: The compounds in Table 1 were selected based on information about β4GalTI, also known as lactose synthase. The enzyme adds galactose to GlcNAc-terminated oligosaccharides on glycoproteins and glycolipids, and will produce lactose in the presence of the cofactor, α-lactalbumin (Berger et al., Biochimie., 85, 261-274, 2003). It is part of a multigene family of β4galactosyltransferases (Hennet, Cell Mol Life. Sci., 59, 1081-1095, 2002; Amado et al., Biochim. Biophys. Acta Gen. Subj., 1473, 35-53, 1999). β4GalTI has been studied kinetically, its substrate specificity has been well documented, and X-ray structures with and without UDP-Gal are available (Gastinel et al., EMBO J., 18, 3546-3557, 1999; Ramakrishnan et al., J. Mol. Biol., 310, 205-218, 2001; Ramakrishnan et al., J. Mol. Biol., 318, 491-502, 2002).
# β4GalTI will act on free GlcNAc, GlcNAc-terminated oligosaccharides and GlcNAc glycosides, including GlcNAcβ3Gal-R (Table 2). […] One possibility for the discrepancy may be that the large aromatic aglycone in our compound may facilitate binding to the enzyme. […]
# [4] = tested on: Lewis carbohydrate antigens on cells; details: monosaccharide; cited from earlier work
# LLC cells = experiment: Experimental metastasis of pretreated LLC cells; assay type: in vivo, mice; details: cells treated 5 days, 3 weeks
# Description: (A) LLC cells were treated in culture for 4 days with peracetylated GlcNAcβ3Gal-NM or vehicle (DMSO/propylene glycol, v/v 1:1). Single-cell suspensions (2×10^5) were injected in the tail-veins of Es1(e) mice. After 3 weeks, the mice were sacrificed and the number of tumors present on the surface of the lungs was determined by visual inspection.
# LLC cells were treated in culture for 5 days with 4-deoxy AcGnG-NM, AcGnG-NM or vehicle (DMSO:propylene glycol) and then a single-cell suspension (2×10^5 cells) was injected in the tail vein of mice. After 3 weeks, the number of tumors present on the surface of the lungs was determined.
# mixed oligosaccharides = experiment: Oligosaccharide priming, [6-3H]Gal incorporation; assay type: cell-based
# Description: (§1) A 4-deoxy modified acetylated disaccharide inhibits sLe^X expression in the absence of oligosaccharide priming.
# U937 cells = experiment: sLe^X expression in U937 cells; assay type: cell-based
# Description: as §1
# [5] = tested on: LS180 cells adhering to recombinant E- or P-selectin; experiment: Cell adhesion to immobilized selectins, control values given for E- and P-selectin together; assay type: cell-based, human
# Description: Cell adhesion to immobilized selectins. 96-well plates were coated overnight at 4° C. with recombinant E-selectin (4 μg/ml) or P-selectin (2 μg/ml) (R & D Systems) and blocked with 1% BSA/PBS. LS180 cells were grown for 5 days with various amounts of acetylated disaccharide, harvested, labeled with Calcein AM (5 μM, Molecular Probes) in DMEM/1% FBS, and allowed to settle at room temperature on selectin-coated wells (5×10^4 cells/well). Plates were then stirred at 75 rpm for 30 min (Orbit shaker, Lab-Line Instruments) followed by immersion upside-down in a vessel filled with Hank's buffered saline solution (HBSS, Sigma), which allowed non-adherent cells to fall under gravity. St John et al., J. Immunol Methods, 170: 159-166, 1994. The wells were then washed by aspiration using HBSS. LS180 cells were less adherent to P-selectin, so the immersion step was not necessary prior to washing. […] Fluorescence was measured using a 96-well fluorimeter (CytoFluor II), and the average of triplicate measurements was determined±standard error. Cell viability was judged to be >90% by Trypan blue exclusion at the end of each experiment.
# Adhesion to selectins is altered in disaccharide-treated tumor cells. Treatment of LS180 cells with AcGnG-NM was not toxic to the cells up to 100 μM based on growth curves and exclusion of Trypan blue. […]
# [6] = tested on: sLe^X on LS180 cell surface; experiment: ELISA with CSLEX-1 mAb of cell-surface sLe^X; assay type: cell-based, human; details: LS180 cells
# [7] = aromatic aglycones, read-out: Ki
compound,measurement,setting,value
CC(=O)N[C@H]1[C@H](Oc2c(C)ccc3ccccc23)O[C@H](CO)[C@@H](O)[C@@H]1O [GlcNAcβ-O-2-methylnaphthol],Ki,β4GalTI [1]; [7],3.5 µM
COC1OC(CO)C(OC)C(O)C1NC(C)=O (centres unmarked) [4-O-methyl-GlcNAcβ-O-Me],Km,"β4GalTI [1]; acceptor, unit not given",Inactive
same,Ki,β4GalTI [1]; result in words,No inhibition
same,Vmax,β4GalTI [1]; unit not given,Inactive
CC(=O)N[C@H]1C(O)O[C@H](CO)[C@@H](O)[C@@H]1O (some centres unmarked) [GlcNAc],Km,β4GalTI [1]; read-out: Km,1000 to 10000 µM
CO[C@@H]1O[C@H](CO[C@@H]2O[C@H](CS)[C@@H](O)[C@H](O)[C@H]2NC(C)=O)[C@@H](O)[C@H](O)[C@H]1O [6′-thio-GlcNAcβ6Glcβ-OMe],Km,"β4GalTI [1]; acceptor, read-out: Km",1200 µM
"Galβ1,4GlcNAcβ-O-naphthalenemethanol [AcGGn-NM]",formation of sialyl Lewis X,[2],inhibit the formation of sialyl Lewis X
COC1OC(CO)CC(O)C1NC(C)=O (centres unmarked) [4-deoxy-GlcNAcβ-O-Me],Km,"β4GalTI [1]; acceptor, unit not given",Inactive
same,inhibition of the enzyme (β4GalT1),β4GalTI [1],did not inhibit
same,Ki,β4GalTI [1]; result in words,No inhibition
same,Vmax,β4GalTI [1]; unit not given,Inactive
CC(=O)N[C@H]1[C@H](O[C@H]2[C@@H](O)[C@@H](CO)O[C@@H](OCc3ccc4ccccc4c3)[C@@H]2O)O[C@H](CO)[C@@H](O)[C@@H]1O [GlcNAcβ3Galβ-O-2-NM],Km,β4GalTI [3],< 10 µM
COC1OC(CO)C(O)C(OC2OC(CS)C(O)C(O)C2NC(C)=O)C1O (centres unmarked) [6′-thio-GlcNAcβ3Galβ-OMe],Km,"β4GalTI [1]; acceptor, unit not given",Inactive
same,inhibition of the enzyme (β4GalT1),β4GalTI [1],weak inhibitor
same,Ki,β4GalTI [1]; read-out: Ki,1000 µM
same,Vmax,β4GalTI [1]; unit not given,Inactive
CO[C@@H]1O[C@H](C)[C@@H](O)[C@H](O)[C@H]1NC(C)=O [6-deoxy-GlcNAcβ-O-Me],Km,"β4GalTI [1]; acceptor, read-out: Km",500 µM
COC1OC(COC2OC(CO)CC(O)C2NC(C)=O)C(O)C(O)C1O (centres unmarked) [4′-deoxy-GlcNAcβ6Glcβ-OMe],Km,"β4GalTI [1]; acceptor, unit not given",Inactive
same,Ki,β4GalTI [1]; result in words,No inhibition
CC(=O)NC1C(Oc2ccc3ccccc3c2)OC(CO)C(O)C1O (centres unmarked) [GlcNAcβ-O-2-naphthol],Ki,β4GalTI [1]; [7],9.5 µM
CC(=O)N[C@H]1[C@@H](OCc2ccccc2)O[C@H](CO)[C@H](O)[C@@H]1O [GalNAcα-O-benzyl],concentration needed to achieve a similar level of inhibition,[4],1 to 5 mM
"OC[C@@H]1C[C@H](O)[C@@H](O)C(O)O1 (some centres unmarked) [Compound 4-deoxy-Glc, 4-deoxy-Glc]",inhibition of β4GalT1,β4GalTI [1]; in the presence of lactalbumin,weak inhibitor
CO[C@@H]1O[C@H](CO)[C@H](O)[C@H](O[C@@H]2O[C@H](CO)[C@@H](O)[C@H](F)[C@H]2NC(C)=O)[C@H]1O [3′-F-GlcNAcβ3Galβ-OMe],Ki,β4GalTI [1]; read-out: Ki,2700 µM
CO[C@@H]1O[C@H](CO)[C@@H](O)C[C@H]1NC(C)=O [3-deoxy-GlcNAcβ-OMe],Km,"β4GalTI [1]; acceptor, read-out: Km",4200 µM
4′-deoxy-GlcNAcβ3Gal-O-NM [4-deoxy AcGnG-NM],experimental metastasis (tumors on the surface of the lungs),LLC cells,inhibited experimental metastasis
same,incorporation of [6-^3H]Gal into mixed oligosaccharides,mixed oligosaccharides,does not
same,sLe^X expression,U937 cells,inhibit sLe^X expression
same,sLe^X expression,U937 cells; listed as 4-deoxy-GlcNAcβ3Gal-NM,inhibits formation of sLe^X
CC(=O)N[C@H]1[C@H](Oc2c(Br)ccc3ccccc23)O[C@H](CO)[C@@H](O)[C@@H]1O [GlcNAcβ-O-2-bromonaphthol],Ki,β4GalTI [1]; [7],7.6 µM
"Galβ1,3Galβ-O-naphthalenemethanol [AcGG-NM]",extent of adhesion normalized to cells not treated with disaccharide,"[5]; E- and P-selectin, disaccharide at 50 μM",0.95-1.1
same,adhesion to either selectin conjugate,[5]; LS180 cells,no effect
same,expression of sLe^X on the cell surface,[6],no effect
COC[C@H]1O[C@@H](OC)[C@H](NC(C)=O)[C@@H](O)[C@@H]1O [6-O-methyl-GlcNAcβ-O-Me],Vmax,β4GalTI [1],1.1 nmol/min
CO[C@@H]1O[C@H](CO)[C@@H](O)[C@H](OC)[C@H]1NC(C)=O [3-O-methyl-GlcNAcβ-O-Me],Km,"β4GalTI [1]; acceptor, read-out: Km",77000 µM
same,Vmax,β4GalTI [1],2.4 nmol/min
COC1OC(CO)C(O)C(OC2OC(CO)CC(O)C2NC(C)=O)C1O (centres unmarked) [4′-deoxy-GlcNAcβ3Galβ-OMe],Km,"β4GalTI [1]; acceptor, unit not given",Inactive
same,inhibition of the enzyme (β4GalT1),β4GalTI [1],did not inhibit
same,Ki,β4GalTI [1]; result in words,No inhibition
COC1OC(CO)C(F)C(O)C1NC(C)=O (centres unmarked) [4-fluoro-GlcNAcβ-OMe],Km,"β4GalTI [1]; acceptor, unit not given",Inactive
same,Ki,β4GalTI [1]; result in words,No inhibition
same,Vmax,β4GalTI [1]; unit not given,Inactive
COC1OC(CO)C(S)C(O)C1NC(C)=O (centres unmarked) [4-thio-GlcNAcβ-OMe],Km,"β4GalTI [1]; acceptor, unit not given",Inactive
same,Ki,β4GalTI [1]; result in words,No inhibition
same,Vmax,β4GalTI [1]; unit not given,Inactive
CC(=O)NC1C(OCc2ccccc2)OC(CO)C(N)C1O (centres unmarked) [4-NH2-GlcNAcβ-OBn],Km,"β4GalTI [1]; acceptor, unit not given",Inactive
same,Ki,β4GalTI [1]; read-out: Ki,850 µM
same,Vmax,β4GalTI [1]; unit not given,Inactive
CC(=O)NC1C(Oc2cccc3ccccc23)OC(CO)C(O)C1O (centres unmarked) [GlcNAcβ-O-1-naphthol],Ki,β4GalTI [1]; [7],22 µM
CO[C@@H]1O[C@H](CO)[C@H](O)[C@H](O[C@@H]2O[C@H](CO)[C@@H](O)[C@H](O)[C@H]2NC(C)=O)[C@H]1O [GlcNAcβ3Galβ-OMe],Km,"β4GalTI [1]; acceptor, read-out: Km",1100 µM
CO[C@@H]1O[C@H](CO)[C@@H](O)[C@H](O)[C@H]1NC(C)=O [GlcNAcβ-O-Me],Km,"β4GalTI [1]; acceptor, read-out: Km",1300 µM and 1800 µM and 1500 µM
